Columns and labels:
Human μ-opioid (MOP) = target: T1, Human μ-opioid (MOP) (Homo sapiens, UniProt P35372); experiment: Radioligand binding, human μ-opioid (MOP) membranes, FlashPlate, [3H]-Naloxone; details: compound at 10 μM, [3H]-Naloxone, human MOP membranes
T1 construct: purchased Perkin Elmer Biosignal
Outline: (§1)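 Cloned human receptor membranes were coated onto FlashPlate wells and incubated with radioligand and compound (added from a 0.5 mM DMSO daughter plate) for 1 hour at room temperature in the dark. Scintillation counting gave percent inhibition, with DMSO defining total and reference ligand defining non-specific binding.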

Human κ-Opioid (KOP) = target: T2, Human κ-Opioid (KOP) (Homo sapiens, UniProt P41145); experiment: Radioligand binding, human κ-opioid (KOP) membranes, filtration, [3H]-Diprenorphine; details: compound at 10 μM, [3H]-Diprenorphine, human KOP membranes
T2 construct: purchased Perkin Elmer Biosignal
Outline: (§2)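 Percent inhibition of radioligand binding measured on recombinant human membranes: NK1 with [125I]-Substance P, KOP with [3H]-Diprenorphine. Incubation 1 h at room temperature, then harvest onto 0.3% PEI-soaked filters, cold Tris-HCl pH 7.4 washes and scintillation counting; non-specific binding from reference ligand wells.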

[1] = target: T3, Human neuropeptide Y (NPY-Y1) (Homo sapiens, UniProt P25929); experiment: Radioligand binding, human neuropeptide Y NPY-Y1 membranes, FlashPlate, [125I]-PYY; details: compound at 10 μM; [125I]-PYY, human NPY-Y1 membranes
T3 construct: purchased Perkin Elmer Biosignal
T3 sequence (P25929 1-384): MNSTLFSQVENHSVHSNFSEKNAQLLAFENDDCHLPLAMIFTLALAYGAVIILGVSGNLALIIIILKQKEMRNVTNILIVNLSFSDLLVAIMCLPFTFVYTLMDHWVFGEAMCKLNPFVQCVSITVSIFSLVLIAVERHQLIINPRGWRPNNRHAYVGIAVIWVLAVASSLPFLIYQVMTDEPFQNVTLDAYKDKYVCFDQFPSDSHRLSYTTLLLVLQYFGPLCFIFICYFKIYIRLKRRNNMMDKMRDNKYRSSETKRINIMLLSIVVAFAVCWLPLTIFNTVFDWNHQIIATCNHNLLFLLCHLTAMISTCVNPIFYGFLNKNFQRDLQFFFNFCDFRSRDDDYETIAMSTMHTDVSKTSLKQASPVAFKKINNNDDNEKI
Outline: as §1

Human melanocortin (MC5) = target: T4, Human melanocortin (MC5) (Homo sapiens, UniProt P33032); experiment: Radioligand binding, human melanocortin MC5 membranes, FlashPlate, [125I]-NDP-αMSH; details: compound at 10 μM; [125I]-NDP-αMSH, human MC5 membranes
T4 construct: purchased Perkin Elmer Biosignal
Outline: as §1

Human neurokinin (NK1) = target: T5, Human neurokinin (NK1) (Homo sapiens, UniProt P25103); experiment: Radioligand binding, human neurokinin NK1 membranes, filtration, [125I]-Substance P; details: compound at 10 μM; [125I]-Substance P, human NK1 membranes
T5 construct: purchased Perkin Elmer Biosignal
Outline: as §2

Human δ-opioid (DOP) = target: T6, Human δ-opioid (DOP) (Homo sapiens, UniProt P41143); experiment: Radioligand binding, human δ-opioid (DOP) membranes, FlashPlate, [3H]-Bremazocine; details: compound at 10 μM; [3H]-Bremazocine, human DOP membranes
T6 construct: purchased Perkin Elmer Biosignal
Outline: as §1

Human opioid (ORL1) = target: T7, Human opioid (ORL1) (Homo sapiens, UniProt P41146); experiment: Radioligand binding, human opioid ORL1 membranes, FlashPlate, [125I]-Nociceptin; details: compound at 10 μM; [125I]-Nociceptin, human ORL1 membranes; 10 µM
T7 construct: purchased Perkin Elmer Biosignal
Outline: as §1

Mouse urotensin (mUR2) = target: T8, Mouse urotensin (mUR2) (Mus musculus, UniProt Q8VIH9); experiment: Radioligand binding, mouse urotensin mUR2 membranes, FlashPlate, [125I]-Urotensin II; details: compound at 10 μM; [125I]-Urotensin II, mouse mUR2 membranes
T8 construct: purchased Perkin Elmer Biosignal
T8 sequence (Q8VIH9 1-385): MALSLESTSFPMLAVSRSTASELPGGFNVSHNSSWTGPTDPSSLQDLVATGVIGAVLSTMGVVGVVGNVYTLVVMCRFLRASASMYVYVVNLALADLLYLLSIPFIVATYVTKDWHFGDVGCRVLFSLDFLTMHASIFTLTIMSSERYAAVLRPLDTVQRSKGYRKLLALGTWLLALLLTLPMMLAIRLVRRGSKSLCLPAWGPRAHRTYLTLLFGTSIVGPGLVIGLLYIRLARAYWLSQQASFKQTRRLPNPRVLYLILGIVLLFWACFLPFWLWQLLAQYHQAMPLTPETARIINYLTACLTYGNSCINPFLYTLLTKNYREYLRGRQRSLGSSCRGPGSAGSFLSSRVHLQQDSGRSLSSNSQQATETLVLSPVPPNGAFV
Outline: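 Cloned mouse urotensin (mUR2) receptor membranes from Perkin Elmer Biosignal were immobilized in FlashPlate microplates using a proprietary coating. Each well got 19.5 μl buffer, then 0.5 μl of DMSO, reference ligand, or compound. Adding 5 μl of [125I]-Urotensin II, diluted to 5× final concentration in binding buffer, started binding. Plates were sealed with TopSeal-A and incubated 1 hour at room temperature in the dark. Wells were counted for 30 seconds each on a TopCount after a 60-second delay, and percentage inhibition was calculated.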

[2] = target: T9, Human melanin-concentrating hormone (MCH1) (Homo sapiens, UniProt Q99705); experiment: Radioligand binding, human melanin-concentrating hormone MCH1 membranes, FlashPlate, [125I]-S36057; details: compound at 10 μM; [125I]-S36057, human MCH1 membranes; 10 µM
T9 construct: purchased Perkin Elmer Biosignal
Outline: as §1

Human Melanocortin (MC3) = target: T10, Human Melanocortin (MC3) (Homo sapiens, UniProt P41968); experiment: Radioligand binding, human melanocortin MC3 membranes, FlashPlate, [125I]-NDP-αMSH; details: compound at 10 μM, [125I]-NDP-αMSH, human MC3 membranes
T10 construct: purchased Perkin Elmer Biosignal
Outline: as §1

Human Melanocortin (MC4) = target: T11, Human Melanocortin (MC4) (Homo sapiens, UniProt P32245); experiment: Radioligand binding, human melanocortin MC4 membranes, FlashPlate, [125I]-NDP-αMSH; details: compound at 10 μM, [125I]-NDP-αMSH, human MC4 membranes
T11 construct: purchased Perkin Elmer Biosignal
Outline: as §1

T6 sequence (P41143 whole entry): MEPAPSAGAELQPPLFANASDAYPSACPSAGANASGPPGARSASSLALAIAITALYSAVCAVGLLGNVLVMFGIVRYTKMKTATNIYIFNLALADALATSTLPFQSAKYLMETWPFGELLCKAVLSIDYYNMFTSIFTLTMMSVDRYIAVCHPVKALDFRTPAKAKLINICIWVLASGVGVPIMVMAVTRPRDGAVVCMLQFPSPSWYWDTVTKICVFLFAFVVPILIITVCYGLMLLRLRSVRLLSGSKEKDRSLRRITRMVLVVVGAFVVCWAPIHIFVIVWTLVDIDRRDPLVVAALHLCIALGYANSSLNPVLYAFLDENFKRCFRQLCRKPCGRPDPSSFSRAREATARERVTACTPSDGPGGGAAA
T9 sequence (Q99705 whole entry): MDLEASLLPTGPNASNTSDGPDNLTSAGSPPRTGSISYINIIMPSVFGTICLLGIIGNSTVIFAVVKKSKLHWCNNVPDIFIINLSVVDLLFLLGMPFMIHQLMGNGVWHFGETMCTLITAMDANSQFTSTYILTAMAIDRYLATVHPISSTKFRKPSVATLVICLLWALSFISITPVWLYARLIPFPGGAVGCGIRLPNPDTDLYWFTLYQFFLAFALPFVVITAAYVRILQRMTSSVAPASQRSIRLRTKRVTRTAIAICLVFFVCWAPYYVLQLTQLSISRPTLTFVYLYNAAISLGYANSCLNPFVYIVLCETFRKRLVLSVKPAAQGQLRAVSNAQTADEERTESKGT
T2 sequence (P41145 whole entry): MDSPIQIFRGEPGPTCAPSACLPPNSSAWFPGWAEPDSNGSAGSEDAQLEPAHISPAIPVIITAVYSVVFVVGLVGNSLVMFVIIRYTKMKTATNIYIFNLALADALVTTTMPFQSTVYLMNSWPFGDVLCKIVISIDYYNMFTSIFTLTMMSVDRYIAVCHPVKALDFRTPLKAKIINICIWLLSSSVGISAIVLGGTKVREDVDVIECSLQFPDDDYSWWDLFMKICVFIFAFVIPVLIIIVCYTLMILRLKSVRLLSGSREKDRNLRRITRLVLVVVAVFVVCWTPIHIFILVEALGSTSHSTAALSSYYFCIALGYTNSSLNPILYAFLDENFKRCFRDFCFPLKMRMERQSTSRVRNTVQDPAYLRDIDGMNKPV
T11 sequence (P32245 whole entry): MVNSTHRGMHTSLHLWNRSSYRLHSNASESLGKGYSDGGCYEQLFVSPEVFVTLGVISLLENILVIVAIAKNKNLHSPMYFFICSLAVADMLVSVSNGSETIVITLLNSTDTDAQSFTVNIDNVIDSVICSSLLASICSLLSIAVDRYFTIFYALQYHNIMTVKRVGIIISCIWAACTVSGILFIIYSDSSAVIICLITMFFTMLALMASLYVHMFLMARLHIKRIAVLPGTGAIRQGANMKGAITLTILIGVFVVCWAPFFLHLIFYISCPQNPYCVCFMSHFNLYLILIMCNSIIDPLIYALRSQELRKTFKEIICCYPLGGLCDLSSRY
T7 sequence (P41146 whole entry): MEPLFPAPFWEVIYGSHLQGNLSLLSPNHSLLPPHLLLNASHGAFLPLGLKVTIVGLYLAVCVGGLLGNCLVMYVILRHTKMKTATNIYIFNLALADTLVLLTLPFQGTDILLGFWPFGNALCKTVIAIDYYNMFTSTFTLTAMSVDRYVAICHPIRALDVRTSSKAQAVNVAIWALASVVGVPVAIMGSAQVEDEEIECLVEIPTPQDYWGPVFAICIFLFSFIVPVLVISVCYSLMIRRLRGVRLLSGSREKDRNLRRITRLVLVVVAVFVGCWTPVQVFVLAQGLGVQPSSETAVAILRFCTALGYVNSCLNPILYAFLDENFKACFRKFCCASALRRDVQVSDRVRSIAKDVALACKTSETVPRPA
T10 sequence (P41968 whole entry): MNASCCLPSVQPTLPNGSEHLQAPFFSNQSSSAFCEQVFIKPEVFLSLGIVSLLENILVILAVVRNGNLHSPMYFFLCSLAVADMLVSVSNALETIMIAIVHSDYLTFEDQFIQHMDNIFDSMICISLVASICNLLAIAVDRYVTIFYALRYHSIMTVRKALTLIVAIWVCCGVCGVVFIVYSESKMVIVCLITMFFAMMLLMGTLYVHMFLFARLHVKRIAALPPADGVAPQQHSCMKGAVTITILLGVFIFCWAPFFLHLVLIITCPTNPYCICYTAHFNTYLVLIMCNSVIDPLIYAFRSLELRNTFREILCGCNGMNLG
T1 sequence (P35372 whole entry): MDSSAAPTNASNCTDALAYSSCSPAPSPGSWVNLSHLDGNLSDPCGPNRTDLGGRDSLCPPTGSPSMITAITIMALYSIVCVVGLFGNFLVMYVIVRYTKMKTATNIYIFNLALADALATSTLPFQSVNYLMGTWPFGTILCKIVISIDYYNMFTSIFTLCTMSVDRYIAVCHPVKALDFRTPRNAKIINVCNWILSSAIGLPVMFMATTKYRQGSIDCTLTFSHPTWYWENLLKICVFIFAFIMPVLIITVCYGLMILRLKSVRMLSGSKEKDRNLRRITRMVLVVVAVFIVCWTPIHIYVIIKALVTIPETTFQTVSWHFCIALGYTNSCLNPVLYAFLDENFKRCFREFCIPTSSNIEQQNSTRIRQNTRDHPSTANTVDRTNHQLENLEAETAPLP
T4 sequence (P33032 whole entry): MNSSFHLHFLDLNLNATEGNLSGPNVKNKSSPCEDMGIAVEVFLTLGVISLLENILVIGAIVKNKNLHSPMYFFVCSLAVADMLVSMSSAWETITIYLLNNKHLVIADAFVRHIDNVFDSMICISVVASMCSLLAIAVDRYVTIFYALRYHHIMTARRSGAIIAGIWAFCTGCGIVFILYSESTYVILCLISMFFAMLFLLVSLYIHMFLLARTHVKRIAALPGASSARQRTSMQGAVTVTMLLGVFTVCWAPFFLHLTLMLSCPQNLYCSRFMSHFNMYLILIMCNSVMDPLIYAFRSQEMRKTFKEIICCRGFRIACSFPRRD
T5 sequence (P25103 whole entry): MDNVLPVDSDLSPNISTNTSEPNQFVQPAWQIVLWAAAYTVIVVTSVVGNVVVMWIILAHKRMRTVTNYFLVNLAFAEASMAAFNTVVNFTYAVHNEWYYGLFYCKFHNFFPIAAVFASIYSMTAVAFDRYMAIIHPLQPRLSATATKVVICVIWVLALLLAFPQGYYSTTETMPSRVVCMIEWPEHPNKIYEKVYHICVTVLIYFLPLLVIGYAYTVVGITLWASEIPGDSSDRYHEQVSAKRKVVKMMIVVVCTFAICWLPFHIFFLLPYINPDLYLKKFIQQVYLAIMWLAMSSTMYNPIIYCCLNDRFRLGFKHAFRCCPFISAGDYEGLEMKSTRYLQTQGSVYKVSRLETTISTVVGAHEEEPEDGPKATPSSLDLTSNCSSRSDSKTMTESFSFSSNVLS

Compound | A7: inhibition of radioligand binding (Human μ-opioid (MOP); 10 µM) | A2: inhibition of radioligand binding (Human κ-Opioid (KOP)) | A9: inhibition of radioligand binding [1] | A5: inhibition of radioligand binding (Human melanocortin (MC5)) | A8: inhibition of radioligand binding (Human neurokinin (NK1)) | A1: inhibition of radioligand binding (Human δ-opioid (DOP)) | A10: inhibition of radioligand binding (Human opioid (ORL1)) | A11: inhibition of radioligand binding (Mouse urotensin (mUR2)) | A6: inhibition of radioligand binding [2] | A3: inhibition of radioligand binding (Human Melanocortin (MC3); 10 µM) | A4: inhibition of radioligand binding (Human Melanocortin (MC4); 10 µM) | A7: inhibition of radioligand binding (Human μ-opioid (MOP)) | A2: inhibition of radioligand binding (Human κ-Opioid (KOP); 10 µM) | A3: inhibition of radioligand binding (Human Melanocortin (MC3)) | A4: inhibition of radioligand binding (Human Melanocortin (MC4))
NCCCC(=O)NC1C(OCc2ccc3ccccc3c2)OC(COCc2ccc3ccccc3c2)C(O)C1OCc1ccc2ccccc2c1 (single isomer, unassigned) [compound 461] | + (“+” indicates greater than 50% inhibition at 10 μM) | − (“−” indicates less than 50% inhibition at 10 μM) | − (“−” indicates less than 50% inhibition at 10 μM) | + (“+” indicates greater than 50% inhibition at 10 μM) | + (“+” indicates greater than 50% inhibition at 10 μM) | − (“−” indicates less than 50% inhibition at 10 μM) | + (“+” indicates greater than 50% inhibition at 10 μM) | − (“−” indicates less than 50% inhibition at 10 μM) | + (“+” indicates greater than 50% inhibition at 10 μM) | + (“+” indicates greater than 50% inhibition at 10 μM) | + (“+” indicates greater than 50% inhibition at 10 μM) | – | – | – | –
NCCCC(=O)NC1C(OCc2ccc3ccccc3c2)OC(COCc2ccc(Cl)cc2)C(O)C1OCc1ccc2ccccc2c1 (single isomer, unassigned) [compound 463] | – | – | − (“−” indicates less than 50% inhibition at 10 μM) | + (“+” indicates greater than 50% inhibition at 10 μM) | + (“+” indicates greater than 50% inhibition at 10 μM) | − (“−” indicates less than 50% inhibition at 10 μM) | − (“−” indicates less than 50% inhibition at 10 μM) | − (“−” indicates less than 50% inhibition at 10 μM) | + (“+” indicates greater than 50% inhibition at 10 μM) | – | – | − (“−” indicates less than 50% inhibition at 10 μM) | + (“+” indicates greater than 50% inhibition at 10 μM) | + (“+” indicates greater than 50% inhibition at 10 μM) | + (“+” indicates greater than 50% inhibition at 10 μM)
NCCCC(=O)NC1C(OCc2ccc3ccccc3c2)OC(COCc2ccc(Cl)cc2)C(O)C1OCc1ccc2ccccc2c1 (single isomer, unassigned) [compound 464] | – | – | − (“−” indicates less than 50% inhibition at 10 μM) | + (“+” indicates greater than 50% inhibition at 10 μM) | + (“+” indicates greater than 50% inhibition at 10 μM) | − (“−” indicates less than 50% inhibition at 10 μM) | + (“+” indicates greater than 50% inhibition at 10 μM) | − (“−” indicates less than 50% inhibition at 10 μM) | + (“+” indicates greater than 50% inhibition at 10 μM) | – | – | − (“−” indicates less than 50% inhibition at 10 μM) | − (“−” indicates less than 50% inhibition at 10 μM) | + (“+” indicates greater than 50% inhibition at 10 μM) | + (“+” indicates greater than 50% inhibition at 10 μM)
NCCCC(=O)NC1C(OCc2ccc3ccccc3c2)OC(COCc2ccc3ccccc3c2)C(O)C1OCc1ccccc1 (single isomer, unassigned) [compound 465] | – | − (“−” indicates less than 50% inhibition at 10 μM) | − (“−” indicates less than 50% inhibition at 10 μM) | + (“+” indicates greater than 50% inhibition at 10 μM) | + (“+” indicates greater than 50% inhibition at 10 μM) | − (“−” indicates less than 50% inhibition at 10 μM) | − (“−” indicates less than 50% inhibition at 10 μM) | − (“−” indicates less than 50% inhibition at 10 μM) | − (“−” indicates less than 50% inhibition at 10 μM) | − (“−” indicates less than 50% inhibition at 10 μM) | − (“−” indicates less than 50% inhibition at 10 μM) | − (“−” indicates less than 50% inhibition at 10 μM) | – | – | –
NCCCC(=O)NC1C(OCc2ccc3ccccc3c2)OC(COCc2ccc3ccccc3c2)C(O)C1OCc1ccccc1 (single isomer, unassigned) [compound 466] | – | − (“−” indicates less than 50% inhibition at 10 μM) | − (“−” indicates less than 50% inhibition at 10 μM) | + (“+” indicates greater than 50% inhibition at 10 μM) | + (“+” indicates greater than 50% inhibition at 10 μM) | − (“−” indicates less than 50% inhibition at 10 μM) | + (“+” indicates greater than 50% inhibition at 10 μM) | − (“−” indicates less than 50% inhibition at 10 μM) | + (“+” indicates greater than 50% inhibition at 10 μM) | − (“−” indicates less than 50% inhibition at 10 μM) | + (“+” indicates greater than 50% inhibition at 10 μM) | − (“−” indicates less than 50% inhibition at 10 μM) | – | – | –

From patent publication US20080009418A1, “Selective Inhibitors” (Alchemia LTD., priority 2004, published 2008)
